Results: PubChem BioAssay AID1963825 (Molecular Pharmacology Branch, DTP, NCI, 2024)

Assay: Anticancer human tumor 997537-175-T-J1-PDC patient-derived colon adenocarcinoma cell line growth inhibition [POLQ]
Conditions: 997537-175-T-J1-PDC complex spheroid viability, combination with POLQ inhibitors; for IC50: curve of first compound; for viability, T/C: stronger effect = lower value
How it was run: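 Three-cell-type spheroids modelling solid tumor plus stroma served as the readout system; POL inhibitors were tested individually and in combination, concentration ranges set by clinical Cmax where known.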

[1] = second compound 0.0316 µM, first compound 0.0316 µM
[2] = second compound 0.0316 µM, first compound 0.1 µM
[3] = second compound 0.0316 µM, first compound 0.316 µM
[4] = second compound 0.0316 µM, first compound 1 µM
[5] = second compound 0.0316 µM, first compound 3.16 µM
[6] = second compound 0.0316 µM, first compound 10 µM
[7] = second compound 0.1 µM, first compound 0.0316 µM
[8] = second compound 0.1 µM, first compound 0.1 µM
[9] = second compound 0.1 µM, first compound 0.316 µM
[10] = second compound 0.1 µM, first compound 1 µM
[11] = second compound 0.1 µM, first compound 3.16 µM
[12] = second compound 0.1 µM, first compound 10 µM
[13] = second compound 0.316 µM, first compound 0.0316 µM
[14] = second compound 0.316 µM, first compound 0.1 µM
[15] = second compound 0.316 µM, first compound 0.316 µM
[16] = second compound 0.316 µM, first compound 1 µM
[17] = second compound 0.316 µM, first compound 3.16 µM
[18] = second compound 0.316 µM, first compound 10 µM
[19] = second compound 1 µM, first compound 0.0316 µM
[20] = second compound 1 µM, first compound 0.1 µM
[21] = second compound 1 µM, first compound 0.316 µM
[22] = second compound 1 µM, first compound 1 µM
[23] = second compound 1 µM, first compound 3.16 µM
[24] = second compound 1 µM, first compound 10 µM
[25] = second compound 3.16 µM, first compound 0.0316 µM
[26] = second compound 3.16 µM, first compound 0.1 µM
[27] = second compound 3.16 µM, first compound 0.316 µM
[28] = second compound 3.16 µM, first compound 1 µM
[29] = second compound 3.16 µM, first compound 3.16 µM
[30] = second compound 3.16 µM, first compound 10 µM
[31] = second compound 10 µM, first compound 0.0316 µM
[32] = second compound 10 µM, first compound 0.1 µM
[33] = second compound 10 µM, first compound 0.316 µM
[34] = second compound 10 µM, first compound 1 µM
[35] = second compound 10 µM, first compound 3.16 µM
[36] = second compound 10 µM, first compound 10 µM
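Note: luminescence signal used as a surrogate for viable cells; spheroids exposed to drugs for seven days before readout.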

CC1COCCN1c1cc(C2(S(C)(=N)=O)CC2)nc(-c2ccnc3[nH]ccc23)n1 (stereo unspecified) + COC1C(OC(N)=O)C(O)C(Oc2ccc3c(O)c(NC(=O)c4ccc(O)c(CC=C(C)C)c4)c(=O)oc3c2C)OC1(C)C
IC50 (second compound 0.0316 µM): > 10 µM
IC50 (second compound 0.1 µM): > 10 µM
IC50 (second compound 0.316 µM): > 10 µM
IC50 (second compound 1 µM): > 10 µM
IC50 (second compound 3.16 µM): > 10 µM
IC50 (second compound 10 µM): > 10 µM
viability, T/C [1]: 113%
viability, T/C [2]: 114%
viability, T/C [3]: 84.4%
viability, T/C [4]: 85.4%
viability, T/C [5]: 90%
viability, T/C [6]: 49.9%
viability, T/C [7]: 94.5%
viability, T/C [8]: 102%
viability, T/C [9]: 82.7%
viability, T/C [10]: 72.1%
viability, T/C [11]: 80.3%
viability, T/C [12]: 60.5%
viability, T/C [13]: 99.8%
viability, T/C [14]: 112%
viability, T/C [15]: 105%
viability, T/C [16]: 94.2%
viability, T/C [17]: 77.7%
viability, T/C [18]: 54.7%
viability, T/C [19]: 110%
viability, T/C [20]: 92.7%
viability, T/C [21]: 102%
viability, T/C [22]: 106%
viability, T/C [23]: 67%
viability, T/C [24]: 56.4%
viability, T/C [25]: 109%
viability, T/C [26]: 112%
viability, T/C [27]: 106%
viability, T/C [28]: 94.3%
viability, T/C [29]: 79.2%
viability, T/C [30]: 66.6%
viability, T/C [31]: 109%
viability, T/C [32]: 95.7%
viability, T/C [33]: 98.9%
viability, T/C [34]: 66.5%
viability, T/C [35]: 71.6%
viability, T/C [36]: 62.8%

O=c1[nH]cc(F)c(=O)[nH]1 + Nc1ccc(C#CCN(C(=O)Cc2ncc(C(F)(F)F)cc2C(F)(F)F)c2ccc(F)cc2)nn1
IC50 (second compound 0.0316 µM): > 10 µM
IC50 (second compound 0.1 µM): > 10 µM
IC50 (second compound 0.316 µM): > 10 µM
IC50 (second compound 1 µM): > 10 µM
IC50 (second compound 3.16 µM): > 10 µM
IC50 (second compound 10 µM): > 10 µM
viability, T/C [1]: 98.7%
viability, T/C [2]: 105%
viability, T/C [3]: 109%
viability, T/C [4]: 84.9%
viability, T/C [5]: 95.7%
viability, T/C [6]: 79%
viability, T/C [7]: 106%
viability, T/C [8]: 99.8%
viability, T/C [9]: 95.9%
viability, T/C [10]: 103%
viability, T/C [11]: 82.6%
viability, T/C [12]: 88.1%
viability, T/C [13]: 95%
viability, T/C [14]: 102%
viability, T/C [15]: 103%
viability, T/C [16]: 105%
viability, T/C [17]: 85%
viability, T/C [18]: 94.1%
viability, T/C [19]: 94.2%
viability, T/C [20]: 93.9%
viability, T/C [21]: 83.7%
viability, T/C [22]: 85.8%
viability, T/C [23]: 73.5%
viability, T/C [24]: 79.9%
viability, T/C [25]: 101%
viability, T/C [26]: 110%
viability, T/C [27]: 118%
viability, T/C [28]: 86.2%
viability, T/C [29]: 88.6%
viability, T/C [30]: 72.5%
viability, T/C [31]: 105%
viability, T/C [32]: 94.5%
viability, T/C [33]: 103%
viability, T/C [34]: 91.2%
viability, T/C [35]: 84.1%
viability, T/C [36]: 81%

C#Cc1c(F)ccc2cc(O)cc(-c3ncc4c(N5CC6CCC(C5)N6)nc(OCC56CCCN5CC(F)C6)nc4c3F)c12 (stereo unspecified) + Nc1ccc(C#CCN(C(=O)Cc2ncc(C(F)(F)F)cc2C(F)(F)F)c2ccc(F)cc2)nn1
IC50 (second compound 0.0316 µM): > 10 µM
IC50 (second compound 0.1 µM): > 10 µM
IC50 (second compound 0.316 µM): > 10 µM
IC50 (second compound 1 µM): > 10 µM
IC50 (second compound 3.16 µM): > 10 µM
IC50 (second compound 10 µM): > 10 µM
viability, T/C [1]: 92.4%
viability, T/C [2]: 93%
viability, T/C [3]: 108%
viability, T/C [4]: 106%
viability, T/C [5]: 102%
viability, T/C [6]: 96.5%
viability, T/C [7]: 101%
viability, T/C [8]: 110%
viability, T/C [9]: 101%
viability, T/C [10]: 86.8%
viability, T/C [11]: 94.1%
viability, T/C [12]: 96.7%
viability, T/C [13]: 105%
viability, T/C [14]: 105%
viability, T/C [15]: 101%
viability, T/C [16]: 96.9%
viability, T/C [17]: 103%
viability, T/C [18]: 110%
viability, T/C [19]: 106%
viability, T/C [20]: 103%
viability, T/C [21]: 95.8%
viability, T/C [22]: 82.8%
viability, T/C [23]: 106%
viability, T/C [24]: 98.1%
viability, T/C [25]: 94.9%
viability, T/C [26]: 103%
viability, T/C [27]: 99.5%
viability, T/C [28]: 92.7%
viability, T/C [29]: 104%
viability, T/C [30]: 107%
viability, T/C [31]: 104%
viability, T/C [32]: 102%
viability, T/C [33]: 100%
viability, T/C [34]: 112%
viability, T/C [35]: 98.8%
viability, T/C [36]: 110%
